Test results from BigSolDB 2.1.

c1ccc(-c2ccc(C(c3ccccc3)n3ccnc3)cc2)cc1 (stereo not given)
solubility (mole fraction) (in isopropanol, 278.15 K): 0.00118
solubility (mole fraction) (in isopropanol, 283.15 K): 0.00165
solubility (mole fraction) (in isopropanol, 288.15 K): 0.00222
solubility (mole fraction) (in isopropanol, 293.15 K): 0.00309
solubility (mole fraction) (in isopropanol, 298.15 K): 0.0041
solubility (mole fraction) (in isopropanol, 303.15 K): 0.00554
solubility (mole fraction) (in isopropanol, 308.15 K): 0.00722
solubility (mole fraction) (in isopropanol, 313.15 K): 0.00951
solubility (mole fraction) (in isopropanol, 318.15 K): 0.0123
solubility (mole fraction) (in methanol, 278.15 K): 0.00228
solubility (mole fraction) (in methanol, 283.15 K): 0.00304
solubility (mole fraction) (in methanol, 288.15 K): 0.00395
solubility (mole fraction) (in methanol, 293.15 K): 0.00517
solubility (mole fraction) (in methanol, 298.15 K): 0.0066
solubility (mole fraction) (in methanol, 303.15 K): 0.00844
solubility (mole fraction) (in methanol, 308.15 K): 0.0106
solubility (mole fraction) (in methanol, 313.15 K): 0.0135
solubility (mole fraction) (in methanol, 318.15 K): 0.0166
solubility (mole fraction) (in n-propanol, 278.15 K): 0.00142
solubility (mole fraction) (in n-propanol, 283.15 K): 0.00196
solubility (mole fraction) (in n-propanol, 288.15 K): 0.00266
solubility (mole fraction) (in n-propanol, 293.15 K): 0.00355
solubility (mole fraction) (in n-propanol, 298.15 K): 0.00468
solubility (mole fraction) (in n-propanol, 303.15 K): 0.00612
solubility (mole fraction) (in n-propanol, 308.15 K): 0.00799
solubility (mole fraction) (in n-propanol, 313.15 K): 0.0106
solubility (mole fraction) (in n-propanol, 318.15 K): 0.0134
solubility (mole fraction) (in propylene glycol, 278.15 K): 0.0017
solubility (mole fraction) (in propylene glycol, 283.15 K): 0.00233
solubility (mole fraction) (in propylene glycol, 288.15 K): 0.00316
solubility (mole fraction) (in propylene glycol, 293.15 K): 0.00418
solubility (mole fraction) (in propylene glycol, 298.15 K): 0.00547
solubility (mole fraction) (in propylene glycol, 303.15 K): 0.00707
solubility (mole fraction) (in propylene glycol, 308.15 K): 0.00916
solubility (mole fraction) (in propylene glycol, 313.15 K): 0.0117
solubility (mole fraction) (in propylene glycol, 318.15 K): 0.0149
solubility (mole fraction) (in water, 278.15 K): 6.6e-06
solubility (mole fraction) (in water, 283.15 K): 9.22e-06
solubility (mole fraction) (in water, 288.15 K): 1.27e-05
solubility (mole fraction) (in water, 293.15 K): 1.7e-05
solubility (mole fraction) (in water, 298.15 K): 2.05e-05
solubility (mole fraction) (in water, 303.15 K): 2.88e-05
solubility (mole fraction) (in water, 308.15 K): 3.87e-05
solubility (mole fraction) (in water, 313.15 K): 4.82e-05
solubility (mole fraction) (in water, 318.15 K): 6.11e-05
